Measurements taken from the supplement of paper PMC13380429.

Key:
[1] = tested on: A549-ACE2 infected with SARS-CoV-2; experiment: cell count relative to DMSO; higher = less toxic; details: 24 h
Caco-2 [2] = experiment: cell viability relative to DMSO; higher = less toxic; details: 72 h
Calu-3 [3] = experiment: as above; details: 72 h
HepG2 [4] = experiment: as above; details: 72 h
U2OS [5] = experiment: as above; details: 72 h
Vero E6 [6] = experiment: as above; details: 72 h
[7] = tested on: A549-ACE2 infected with SARS-CoV-2; experiment: SARS-CoV-2 infection rate relative to DMSO; higher = more infection; details: 24 h
A549-ACE2 = experiment: drug-induced phospholipidosis relative to tamoxifen; higher = more phospholipidosis
[8] = tested on: A549-ACE2 infected with SARS-CoV-2; experiment: morphology score (similarity to uninfected cells); higher = more like uninfected cells; details: 24 h
Caco-2 [9] = experiment: relative viability EC50 (midpoint between 100% and the lowest measured viability); higher = less toxic; details: 72 h
Calu-3 [10] = experiment: as above; details: 72 h
HepG2 [11] = experiment: as above; details: 72 h
U2OS [12] = experiment: as above; details: 72 h
Vero E6 [13] = experiment: as above; details: 72 h
Caco-2 [14] = experiment: drug sensitivity score (DSS) for viability; higher = more toxic; extreme values may be limits of the assay; details: 72 h
Calu-3 [15] = experiment: as above; details: 72 h
HepG2 [16] = experiment: as above; details: 72 h
U2OS [17] = experiment: as above; details: 72 h
Vero E6 [18] = experiment: as above; details: 72 h

CC[C@@]1([C@H]2O[C@H]([C@H]3O[C@@](O)(CO)[C@H](C)C[C@@H]3C)C[C@H]2C)CC[C@H]([C@@]2(C)CC[C@]3(C[C@H](O)[C@@H](C)[C@@H]([C@H](C)[C@H](OC)[C@@H](C)C(=O)O)O3)O2)O1 [MONENSIN SODIUM]
Details | SARS-CoV-2 infection rate, [7] [%] | cell count, [1] [%] | cell viability, Caco-2 [2] [%] | cell viability, Calu-3 [3] [%] | cell viability, HepG2 [4] [%] | cell viability, U2OS [5] [%] | cell viability, Vero E6 [6] [%] | morphology score, [8]
1 nM | – | – | 93.9 | 99 | 94.6 | 99.5 | 96.7 | –
10 nM | – | – | 93.4 | 93.1 | 107 | 96.2 | 103 | –
100 nM | – | – | 109 | 89.9 | 91.8 | 99.3 | 95.6 | –
0.3 µM | 50 | 114 | – | – | – | – | – | 0.72
1000 nM | – | – | 56.9 | 68 | 82.9 | 97.1 | 103 | –
3 µM | 61 | 108 | – | – | – | – | – | 0.85
10 µM | 25 | 115 | – | – | – | – | – | 0.83
10000 nM | – | – | 20.9 | 36.9 | 26.2 | 35.4 | 102 | –
30 µM | 17 | 119 | – | – | – | – | – | 0.82

drug-induced phospholipidosis [%], A549-ACE2
Details | 0.3 µM | 0.833333 µM | 3.33333 µM | 6.66667 µM | 10 µM | 30 µM
24 h | -1.18 | -1.15 | 0.94 | 1.15 | -4.98 | -12.7
48 h | 5.4 | 3.73 | 5.09 | -3.84 | -2.31 | -14.7
72 h | 6.27 | 4.79 | 7.82 | – | – | –

Details | drug sensitivity score | relative viability EC50 [nM]
Caco-2 [9] | – | 934
Caco-2 [14] | 9.7 | –
Calu-3 [10] | – | 789
Calu-3 [15] | 7.5 | –
HepG2 [11] | – | 1610
HepG2 [16] | 6.8 | –
U2OS [12] | – | 2830
U2OS [17] | 3.9 | –
Vero E6 [13] | – | > 10000
Vero E6 [18] | 0 | –

CN1C2C=C(c3sccc3Br)CC1CC2 (stereo not given) [NS-3861]
Details | SARS-CoV-2 infection rate, [7] [%] | cell count, [1] [%] | cell viability, Caco-2 [2] [%] | cell viability, HepG2 [4] [%] | cell viability, U2OS [5] [%] | cell viability, Vero E6 [6] [%] | morphology score, [8]
1 nM | – | – | 101 | 107 | 97.6 | 98.9 | –
10 nM | – | – | 103 | 107 | 101 | 99.5 | –
100 nM | – | – | 92.4 | 97.2 | 95.3 | 99 | –
0.3 µM | 97 | 99 | – | – | – | – | 0
1000 nM | – | – | 106 | 89.2 | 100 | 96.7 | –
3 µM | 83 | 109 | – | – | – | – | 0.45
10 µM | 75 | 104 | – | – | – | – | 0.4
10000 nM | – | – | 101 | 92.5 | 94.6 | 97.2 | –
30 µM | 41 | 113 | – | – | – | – | 0.77

drug-induced phospholipidosis [%], A549-ACE2
Details | 0.3 µM | 0.833333 µM | 3.33333 µM | 6.66667 µM | 10 µM | 30 µM
24 h | 1.11 | -3.88 | -0.69 | -1.21 | 2.15 | 14.7
48 h | 2.52 | -3.07 | -1.18 | -0.52 | -0.04 | 12.8
72 h | 4.83 | -2.54 | -0.115 | 0.151 | 0.487 | 12.9

Details | drug sensitivity score | relative viability EC50 [nM]
Caco-2 [9] | – | > 10000
Caco-2 [14] | 0 | –
HepG2 [11] | – | > 10000
HepG2 [16] | 0.3 | –
U2OS [12] | – | > 10000
U2OS [17] | 0 | –
Vero E6 [13] | – | > 10000
Vero E6 [18] | 0 | –
